# Measured values from US12612412B2, “Antiviral heterocyclic compounds” (Enanta Pharmaceuticals, Inc., priority 2021, dated 2026).
# Tested on: genotype A, "Long" strain RSV
# Experiment: RSV-A assay (CPE protection in Hep-2 cells, ATPlite readout)
# Format: cell-based, Human respiratory syncytial virus (HRSV)
# Conditions: human respiratory syncytial virus, RSV-A Long strain, MOI 0.1, CPE protection, read-out: Human RSV-A (“Long”) EC50
# Procedure, shortened: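 ATPlite luminescence (cellular ATP) served as the measure of cell health after 5 days of infection. Hep-2 cells at 8,000 per well received duplicate 2-fold compound dilutions plus virus at MOI 0.1, and EC50 was calculated from CPE protection.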
row,SMILES,EC50
1,COc1cc(C(=O)NC[C@](O)(c2cc3c(c(-c4ccc(F)cc4)n2)OC[C@]3(C)C(N)=O)C(F)(F)F)cn2nc(C3CC3)cc12 [Example 879],> 200 nM
2,COc1cc(C(=O)NC[C@](O)(c2cc3c(c(-c4ccc(F)c(Cl)c4)n2)OC[C@]3(C)C(N)=O)C(F)(F)F)cn2nc(C3CC3)cc12 [Example 880],> 200 nM
3,COc1cc(C(=O)NC[C@](O)(c2cc3c(c(-c4ccc(F)cc4)n2)OC[C@]3(C)C(N)=O)C(F)(F)F)cn2nc(N)cc12 [Example 881],< 200 nM
4,COc1cc(C(=O)NCC(O)(c2cc3c(c(Br)n2)OC[C@]3(C)C(N)=O)C(F)(F)F)cc2cn(C3CC3)nc12 (stereo partly shown) [Example 890],> 200 nM
5,COc1cc(C(=O)NC[C@@](O)(c2cc3c(c(-c4ccc(C5CC5)cc4)n2)OC[C@]3(C)C(N)=O)C(F)(F)F)cc2cn(C3CC3)nc12 [Example 892],> 200 nM
6,COc1cc(C(=O)NC[C@@](O)(c2cc3c(c(-c4ccc5c(c4)OC(F)(F)O5)n2)OC[C@]3(C)C(N)=O)C(F)(F)F)cc2cn(C3CC3)nc12 [Example 894],> 200 nM
7,COc1cc(C(=O)NC[C@@](O)(c2cc3c(c(-c4ccc(C(F)F)cc4)n2)OC[C@]3(C)C(N)=O)C(F)(F)F)cc2cn(C3CC3)nc12 [Example 895],> 200 nM
8,COc1cc(C(=O)NC[C@@](O)(c2cc3c(c(-c4ccc(OC(F)(F)F)cc4)n2)OC[C@]3(C)C(N)=O)C(F)(F)F)cc2cn(C3CC3)nc12 [Example 897],> 200 nM
9,COc1cc(C(=O)NC[C@@](O)(c2cc3c(c(-c4ccc(F)cc4F)n2)OC[C@]3(C)C(N)=O)C(F)(F)F)cc2cn(C3CC3)nc12 [Example 900],< 200 nM
10,COc1cc(C(=O)NC[C@](O)(c2cc3c(c(-c4ccc5oc(C)nc5c4)n2)OC[C@]3(C)C(N)=O)C(F)(F)F)cc2cn(C3CC3)nc12 [Example 902],> 200 nM
11,COc1cc(C(=O)NC[C@](O)(c2cc3c(c(-c4cn(C)nc4C(F)(F)F)n2)OC[C@]3(C)C(N)=O)C(F)(F)F)cc2cn(C3CC3)nc12 [Example 904],> 200 nM
12,COc1ccc(-c2nc([C@](O)(CNC(=O)c3cc(OC)c4nn(C5CC5)cc4c3)C(F)(F)F)cc3c2OC[C@]3(C)C(N)=O)cc1OC [Example 905],> 200 nM
13,COc1ccc(-c2nc([C@@](O)(CNC(=O)c3cc(OC)c4nn(C5CC5)cc4c3)C(F)(F)F)cc3c2OC[C@]3(C)C(N)=O)cc1OC [Example 906],< 200 nM
14,COc1cc(C(=O)NC[C@@](O)(c2cc3c(c(-c4ccc5c(c4)OCO5)n2)OC[C@]3(C)C(N)=O)C(F)(F)F)cc2cn(C3CC3)nc12 [Example 907],> 200 nM
15,COc1cc(C(=O)NC[C@@](O)(c2cc3c(c(-c4ccccc4F)n2)OC[C@]3(C)C(N)=O)C(F)(F)F)cc2cn(C3CC3)nc12 [Example 910],> 200 nM
16,COc1cc(C(=O)NC[C@](O)(c2cc3c(c(-c4ccc(F)cc4)n2)OC[C@]3(C(N)=O)C(F)F)C(F)(F)F)cc2cn(C3CC3)nc12 [Example 998],< 200 nM
17,COc1cc(C(=O)NC[C@](O)(c2cc3c(c(-c4ccc(F)c(Cl)c4)n2)OC[C@@]3(CF)C(N)=O)C(F)(F)F)ccc1OC1CC1 [Example 1048],> 200 nM
18,COc1cc(C(=O)NC[C@](O)(c2cc3c(c(-c4ccc(F)c(Cl)c4)n2)OC[C@]3(C)C(N)=O)C(F)(F)F)cc2cc(C)c(Cl)nc12 [Example 1071],< 200 nM
19,COc1cc(C(=O)NC[C@](O)(c2cc3c(c(-c4cccc(F)c4Cl)n2)OC[C@]3(C)C(N)=O)C2CC2)cc2cc(C)c(Cl)nc12 [Example 1073],< 200 nM
20,Cc1cc2cc(C(=O)NC[C@](O)(c3cc4c(c(-c5ccc(F)cc5)n3)OC[C@]4(C)C(N)=O)C(F)(F)F)cc(OC3CC3)c2nc1Cl [Example 1075],< 200 nM
21,Cc1cc2cc(C(=O)NC[C@](O)(c3cc4c(c(-c5ccc(F)c(Cl)c5)n3)OC[C@]4(C)C(N)=O)C(F)(F)F)cc(OC3CC3)c2nc1Cl [Example 1076],< 200 nM
22,Cc1cc2cc(C(=O)NC[C@](O)(c3cc4c(c(-c5ccc(F)c(Cl)c5F)n3)OC[C@]4(C)C(N)=O)C3CC3)cc(OC3CC3)c2nc1Cl [Example 1077],< 200 nM
23,Cc1cc2cc(C(=O)NC[C@](O)(c3cc4c(c(-c5cccc(F)c5Cl)n3)OC[C@]4(C)C(N)=O)C3CC3)cc(OC3CC3)c2nc1Cl [Example 1078],< 200 nM
24,Cc1cc2cc(C(=O)NC[C@](O)(c3cc4c(c(-c5ccc6c(c5)OC(F)(F)O6)n3)OC[C@]4(C)C(N)=O)C3CC3)cc(OC3CC3)c2nc1Cl [Example 1079],< 200 nM
25,C[C@]1(C(N)=O)COc2c1cc([C@@](O)(CNC(=O)c1cc(OC3CC3)c3nn(C(F)F)cc3c1)C1CC1)nc2-c1cc(Br)c(F)cc1F [Example 1086],< 200 nM
26,COc1cc(C(=O)NC[C@](O)(c2cc3c(c(-c4cccc(F)c4Cl)n2)OC[C@]3(C)C(N)=O)C(F)(F)F)cc2cn(C3CC3)nc12 [Example 1107],< 200 nM
27,COc1cc(C(=O)NC[C@](O)(c2cc3c(c(-c4ccc(F)cc4)n2)OC[C@]3(C)C(N)=O)C2CC2)cc2cc(C)nnc12 [Example 1108],< 200 nM

# Same assay, conditions: human respiratory syncytial virus, genotype A “Long” strain RSV, MOI 0.1, CPE protection, read-out: Human RSV-A (“Long”)
row,SMILES,EC50
1,C[C@]1(C(N)=O)COc2c1cc([C@@](O)(CNC(=O)c1cnn(-c3ccc(C(F)(F)F)cc3)c1)C(F)(F)F)nc2-c1ccc(F)cc1 [Example 455],> 200 nM
2,C[C@]1(C(N)=O)COc2c1cc([C@@](O)(CNC(=O)c1cnn(-c3ccccc3)c1C(F)(F)F)C(F)(F)F)nc2-c1ccc(F)cc1 [Example 456],> 200 nM
3,C[C@]1(C(N)=O)COc2c1cc([C@@](O)(CNC(=O)c1cn(-c3ccccc3)nc1C(F)(F)F)C(F)(F)F)nc2-c1ccc(F)cc1 [Example 457],> 200 nM
4,Cc1c(C(=O)NC[C@](O)(c2cc3c(c(-c4ccc(F)cc4)n2)OC[C@]3(C)C(N)=O)C(F)(F)F)cnn1-c1ccccc1 [Example 458],< 200 nM
5,C[C@]1(C(N)=O)COc2c1cc([C@@](O)(CNC(=O)c1cnn(C3CC3)c1)C(F)(F)F)nc2-c1ccc(F)cc1 [Example 461],< 200 nM
6,Cc1nc(C2CC2)sc1C(=O)NC[C@](O)(c1cc2c(c(-c3ccc(F)cc3)n1)OC[C@]2(C)C(N)=O)C(F)(F)F [Example 462],< 200 nM
7,CC[C@@]1(C(N)=O)COc2c1cc([C@@](O)(CNC(=O)c1cc(OC)c3nn(C4CC4)cc3c1)C(F)(F)F)nc2-c1ccc(F)cc1 [Example 463],< 200 nM
8,CC[C@]1(C(N)=O)COc2c1cc([C@@](O)(CNC(=O)c1cc(OC)c3nn(C4CC4)cc3c1)C(F)(F)F)nc2-c1ccc(F)cc1 [Example 464],< 200 nM
9,C[C@]1(C(N)=O)COc2c1cc([C@@](O)(CNC(=O)c1csc(-c3ccccc3)n1)C(F)(F)F)nc2-c1ccc(F)cc1 [Example 482],> 200 nM
10,Cc1sc(-c2ccccc2)nc1C(=O)NC[C@](O)(c1cc2c(c(-c3ccc(F)cc3)n1)OC[C@]2(C)C(N)=O)C(F)(F)F [Example 483],> 200 nM
11,C[C@]1(C(N)=O)COc2c1cc([C@@](O)(CNC(=O)c1cnc(-c3ccccc3F)s1)C(F)(F)F)nc2-c1ccc(F)cc1 [Example 484],> 200 nM
12,Cc1nc(-c2ccccc2F)sc1C(=O)NC[C@](O)(c1cc2c(c(-c3ccc(F)cc3)n1)OC[C@]2(C)C(N)=O)C(F)(F)F [Example 485],> 200 nM
13,C[C@]1(C(N)=O)COc2c1cc([C@@](O)(CNC(=O)c1cccc3nc(N)sc13)C(F)(F)F)nc2-c1ccc(F)cc1 [Example 490],< 200 nM
14,C[C@]1(C(N)=O)COc2c1cc([C@@](O)(CNC(=O)c1ccn3nc(C4CC4)cc3c1)C1CC1)nc2-c1ccc(F)c(Cl)c1 [Example 492],< 200 nM
15,COc1cc(C(=O)NC[C@](O)(c2cc3c(c(-c4ccc(F)cc4Cl)n2)OC[C@]3(C)C(N)=O)C2CC2)cc2cn(C3CC3)nc12 [Example 535],< 200 nM
16,COc1cc(C(=O)NC[C@](O)(c2cc3c(c(-c4cnc(C#N)c(Cl)c4)n2)OC[C@]3(C)C(N)=O)C(F)(F)F)cc2cc(Cl)c(C)nc12 [Example 584],< 200 nM
17,COc1cc(C(=O)NC[C@](O)(c2cc3c(c(-c4ccc(F)c(Cl)c4)n2)OC[C@]3(C)C(N)=O)C2CC2)cn2cc(C3CC3)nc12 [Example 634],< 200 nM
18,COc1cc(C(=O)NC[C@@](O)(c2cc3c(c(-c4ccc(F)c(C)c4)n2)OC[C@]3(C)C(N)=O)C(F)(F)F)cc2cn(C3CC3)nc12 [Example 635],> 200 nM
19,C[C@]1(C(N)=O)COc2c1cc([C@@](O)(CNC(=O)c1ccnc3cc[nH]c13)C(F)(F)F)nc2-c1ccc2c(c1)OC(F)(F)O2 [Example 701],< 200 nM
20,Cc1ccn2cc(C(=O)NC[C@](O)(c3cc4c(c(-c5ccc(F)cc5)n3)OC[C@]4(C)C(N)=O)C(F)(F)F)nc2c1 [Example 805],> 200 nM
21,Cc1cccn2cc(C(=O)NC[C@](O)(c3cc4c(c(-c5ccc(F)cc5)n3)OC[C@]4(C)C(N)=O)C(F)(F)F)nc12 [Example 806],> 200 nM
22,Cc1cccc2nc(C(=O)NC[C@](O)(c3cc4c(c(-c5ccc(F)cc5)n3)OC[C@]4(C)C(N)=O)C(F)(F)F)cn12 [Example 807],> 200 nM
23,C[C@]1(C(N)=O)COc2c1cc([C@@](O)(CNC(=O)c1cn3cc(Cl)ccc3n1)C(F)(F)F)nc2-c1ccc(F)cc1 [Example 808],< 200 nM
24,C[C@]1(C(N)=O)COc2c1cc([C@@](O)(CNC(=O)c1cn3cc(F)ccc3n1)C(F)(F)F)nc2-c1ccc(F)cc1 [Example 809],> 200 nM
25,C[C@]1(C(N)=O)COc2c1cc([C@@](O)(CNC(=O)c1cn3cc(C(F)(F)F)ccc3n1)C(F)(F)F)nc2-c1ccc(F)cc1 [Example 810],> 200 nM
26,CC(C)Oc1ccc2nc(C(=O)NC[C@](O)(c3cc4c(c(-c5ccc(F)cc5)n3)OC[C@]4(C)C(N)=O)C(F)(F)F)cn2c1 [Example 812],> 200 nM
27,C[C@]1(C(N)=O)COc2c1cc([C@@](O)(CNC(=O)c1cn3cc(OC4CC4)ccc3n1)C(F)(F)F)nc2-c1ccc(F)cc1 [Example 813],> 200 nM
28,C[C@]1(C(N)=O)COc2c1cc([C@@](O)(CNC(=O)c1cn3cc(OC(F)(F)F)ccc3n1)C(F)(F)F)nc2-c1ccc(F)cc1 [Example 814],> 200 nM
